From ChEMBL document CHEMBL6092162, “Identification of novel and potent triazoles targeting CYP51 for antifungal: Design, synthesis, and biological study” (Eur J Med Chem, 2024)
In brackets after ≈: the same amount, converted by molar mass.

Columns and labels:
Assay type in all cases: functional
Nakaseomyces glabratus = test: Antifungal activity against Candida glabrata assessed as inhibition of fungal growth by CLSI M27-A3 guidelines based method
Candida parapsilosis = test: Antifungal activity against Candida parapsilosis GIM 2.190 assessed as inhibition of fungal growth by CLSI M27-A3 guidelines based method; details: Lodderomyces parapsilosis
Pichia kudriavzevii = test: Antifungal activity against Candida krusei GIM 2.1 assessed as inhibition of fungal growth by CLSI M27-A3 guidelines based method
Candida albicans [1] = test: Antifungal activity against Candida albicans GIM 2.194 assessed as inhibition of fungal growth by CLSI M27-A3 guidelines based method
Candida tropicalis = test: Antifungal activity against Candida tropicalis GIM 2.183 assessed as inhibition of fungal growth by CLSI M27-A3 guidelines based method
Cryptococcus neoformans = test: Antifungal activity against Cryptococcus neoformans CGMCC 2.3161 assessed as inhibition of fungal growth by CLSI M27-A3 guidelines based method
Candida albicans [2] = test: Antifungal activity against Candida albicans SC5314 assessed as inhibition of fungal growth by CLSI M27-A3 guidelines based method

Row | MIC80 (Nakaseomyces glabratus) [µg/mL] | MIC80 (Candida parapsilosis) [µg/mL] | MIC80 (Pichia kudriavzevii) [µg/mL] | MIC80 (Candida albicans [1]) [µg/mL] | MIC80 (Candida tropicalis) [µg/mL] | MIC80 (Cryptococcus neoformans) [µg/mL] | MIC80 (Candida albicans [2]) [µg/mL] | SMILES
1 | 0.4 (≈ 0.726 µM) | 0.025 (≈ 0.0454 µM) | 0.1 (≈ 0.182 µM) | 0.006 (≈ 0.0109 µM) | 0.05 (≈ 0.0908 µM) | 0.2 (≈ 0.363 µM) | 0.05 (≈ 0.0908 µM) | CN(Cc1ccc(N2CCN(Cc3ccccc3F)CC2)cc1)CC(O)(Cn1cncn1)c1ccc(F)cc1F (stereo unspecified)
2 | 0.2 (≈ 0.294 µM) | 0.013 (≈ 0.0191 µM) | 0.2 (≈ 0.294 µM) | 0.025 (≈ 0.0368 µM) | 0.025 (≈ 0.0368 µM) | 0.2 (≈ 0.294 µM) | 0.013 (≈ 0.0191 µM) | CN(Cc1ccc(N2CCN(Cc3ccc(C(F)(F)F)cc3Br)CC2)cc1)CC(O)(Cn1cncn1)c1ccc(F)cc1F (stereo unspecified)
3 | 0.1 (≈ 0.145 µM) | 0.006 (≈ 0.00869 µM) | 0.1 (≈ 0.145 µM) | 0.025 (≈ 0.0362 µM) | 0.006 (≈ 0.00869 µM) | – | 0.013 (≈ 0.0188 µM) | CN(Cc1ccc(N2CCN(Cc3cc(Br)ccc3Br)CC2)cc1)CC(O)(Cn1cncn1)c1ccc(F)cc1F (stereo unspecified)
4 | 3.2 (≈ 5.24 µM) | 0.8 (≈ 1.31 µM) | 3.2 (≈ 5.24 µM) | 0.8 (≈ 1.31 µM) | 0.4 (≈ 0.655 µM) | 3.2 (≈ 5.24 µM) | 0.4 (≈ 0.655 µM) | CN(Cc1ccc(N2CCN(Cc3ccc(S(C)(=O)=O)cc3)CC2)cc1)CC(O)(Cn1cncn1)c1ccc(F)cc1F (stereo unspecified)
5 | 0.4 (≈ 0.654 µM) | 0.05 (≈ 0.0818 µM) | 0.1 (≈ 0.164 µM) | 0.025 (≈ 0.0409 µM) | 0.025 (≈ 0.0409 µM) | 0.2 (≈ 0.327 µM) | 0.025 (≈ 0.0409 µM) | CN(Cc1ccc(N2CCN(Cc3ccc(Br)cc3)CC2)cc1)CC(O)(Cn1cncn1)c1ccc(F)cc1F (stereo unspecified)
6 | 0.8 (≈ 1.45 µM) | 0.2 (≈ 0.363 µM) | 0.2 (≈ 0.363 µM) | 0.05 (≈ 0.0908 µM) | 0.1 (≈ 0.182 µM) | 0.8 (≈ 1.45 µM) | 0.1 (≈ 0.182 µM) | CN(Cc1ccc(N2CCN(Cc3ccc(F)cc3)CC2)cc1)CC(O)(Cn1cncn1)c1ccc(F)cc1F (stereo unspecified)

Further lines, the compound ahead of its results:

Row | SMILES | MIC80 (Nakaseomyces glabratus) [µg/mL] | MIC80 (Candida parapsilosis) [µg/mL] | MIC80 (Pichia kudriavzevii) [µg/mL] | MIC80 (Candida albicans [1]) [µg/mL] | MIC80 (Candida tropicalis) [µg/mL] | MIC80 (Cryptococcus neoformans) [µg/mL] | MIC80 (Candida albicans [2]) [µg/mL]
7 | C#Cc1ccc(CN2CCN(c3ccc(CN(C)CC(O)(Cn4cncn4)c4ccc(F)cc4F)cc3)CC2)cc1 (stereo unspecified) | 3.2 (≈ 5.75 µM) | 0.4 (≈ 0.719 µM) | 3.2 (≈ 5.75 µM) | 0.2 (≈ 0.359 µM) | 0.1 (≈ 0.18 µM) | 3.2 (≈ 5.75 µM) | 0.1 (≈ 0.18 µM)
8 | Cc1ccc(CN2CCN(c3ccc(CN(C)CC(O)(Cn4cncn4)c4ccc(F)cc4F)cc3)CC2)cc1 (stereo unspecified) | 1.6 (≈ 2.93 µM) | 0.4 (≈ 0.732 µM) | 0.8 (≈ 1.46 µM) | 0.2 (≈ 0.366 µM) | 0.2 (≈ 0.366 µM) | 3.2 (≈ 5.85 µM) | 0.2 (≈ 0.366 µM)
9 | CN(Cc1ccc(N2CCN(Cc3ccc(Br)cc3Br)CC2)cc1)CC(O)(Cn1cncn1)c1ccc(F)cc1F (stereo unspecified) | 0.1 (≈ 0.145 µM) | 0.006 (≈ 0.00869 µM) | 0.1 (≈ 0.145 µM) | 0.013 (≈ 0.0188 µM) | 0.006 (≈ 0.00869 µM) | – | 0.013 (≈ 0.0188 µM)
10 | CN(Cc1ccc(N2CCN(Cc3ccc(I)cc3)CC2)cc1)CC(O)(Cn1cncn1)c1ccc(F)cc1F (stereo unspecified) | 0.2 (≈ 0.304 µM) | 0.1 (≈ 0.152 µM) | 0.1 (≈ 0.152 µM) | 0.013 (≈ 0.0197 µM) | 0.05 (≈ 0.0759 µM) | 0.1 (≈ 0.152 µM) | 0.025 (≈ 0.038 µM)
11 | CN(Cc1ccc(N2CCN(Cc3ccc([N+](=O)[O-])cc3)CC2)cc1)CC(O)(Cn1cncn1)c1ccc(F)cc1F (stereo unspecified) | 1.6 (≈ 2.77 µM) | 0.025 (≈ 0.0433 µM) | 0.4 (≈ 0.692 µM) | 0.05 (≈ 0.0866 µM) | 0.025 (≈ 0.0433 µM) | 0.1 (≈ 0.173 µM) | 0.025 (≈ 0.0433 µM)
12 | CN(Cc1ccc(N2CCN(Cc3ccccc3)CC2)cc1)CC(O)(Cn1cncn1)c1ccc(F)cc1F (stereo unspecified) | 0.4 (≈ 0.751 µM) | 0.025 (≈ 0.0469 µM) | 0.4 (≈ 0.751 µM) | 0.013 (≈ 0.0244 µM) | 0.013 (≈ 0.0244 µM) | 0.2 (≈ 0.375 µM) | 0.013 (≈ 0.0244 µM)
13 | CN(Cc1ccc(N2CCN(Cc3ccc(Cl)cc3)CC2)cc1)CC(O)(Cn1cncn1)c1ccc(F)cc1F (stereo unspecified) | 0.8 (≈ 1.41 µM) | 0.1 (≈ 0.176 µM) | 0.1 (≈ 0.176 µM) | 0.05 (≈ 0.0882 µM) | 0.05 (≈ 0.0882 µM) | 0.8 (≈ 1.41 µM) | 0.05 (≈ 0.0882 µM)
14 | CN(Cc1ccc(N2CCN(C(=O)c3ccccc3)CC2)cc1)CC(O)(Cn1cncn1)c1ccc(F)cc1F (stereo unspecified) | 1.6 (≈ 2.93 µM) | 0.025 (≈ 0.0457 µM) | 1.6 (≈ 2.93 µM) | 0.013 (≈ 0.0238 µM) | 0.013 (≈ 0.0238 µM) | 0.4 (≈ 0.732 µM) | 0.025 (≈ 0.0457 µM)
15 | CN1CCN(c2ccc(CN(C)CC(O)(Cn3cncn3)c3ccc(F)cc3F)cc2)CC1 (stereo unspecified) | > 32 | 8 (≈ 17.5 µM) | > 32 | 8 (≈ 17.5 µM) | 4 (≈ 8.76 µM) | > 32 | 8 (≈ 17.5 µM)
16 | CC(C)C(=O)N1CCN(c2ccc(CN(C)CC(O)(Cn3cncn3)c3ccc(F)cc3F)cc2)CC1 (stereo unspecified) | 16 (≈ 31.2 µM) | 0.25 (≈ 0.488 µM) | 16 (≈ 31.2 µM) | 1 (≈ 1.95 µM) | 0.5 (≈ 0.975 µM) | 16 (≈ 31.2 µM) | 0.25 (≈ 0.488 µM)
17 | CC(C)c1ccc(CN2CCN(c3ccc(CN(C)CC(O)(Cn4cncn4)c4ccc(F)cc4F)cc3)CC2)cc1 (stereo unspecified) | 0.4 (≈ 0.696 µM) | 0.013 (≈ 0.0226 µM) | – | 0.013 (≈ 0.0226 µM) | 0.25 (≈ 0.435 µM) | 0.1 (≈ 0.174 µM) | 0.013 (≈ 0.0226 µM)
